Laboratory results as given in PMC8287927, “Evidence for a chromosome origin unwinding system broadly conserved in bacteria” (Nucleic Acids Research, 2021).

Target: T1, B. subtilis DnaA (Bacillus subtilis, UniProt P05648)
T1 construct: full-length, cloned in pSP015 with His14-SUMO-FLAG3 tag; His14-SUMO cleaved (FLAG3 kept where present); E. coli BL21(DE3)-pLysS
Experiment: competition with TNP-ATP fluorescence
Settings: pH 8, 5 mM magnesium acetate, 25 C; competitive with TNP-ATP, nucleotide binding pocket

T1 sequence (P05648 whole entry): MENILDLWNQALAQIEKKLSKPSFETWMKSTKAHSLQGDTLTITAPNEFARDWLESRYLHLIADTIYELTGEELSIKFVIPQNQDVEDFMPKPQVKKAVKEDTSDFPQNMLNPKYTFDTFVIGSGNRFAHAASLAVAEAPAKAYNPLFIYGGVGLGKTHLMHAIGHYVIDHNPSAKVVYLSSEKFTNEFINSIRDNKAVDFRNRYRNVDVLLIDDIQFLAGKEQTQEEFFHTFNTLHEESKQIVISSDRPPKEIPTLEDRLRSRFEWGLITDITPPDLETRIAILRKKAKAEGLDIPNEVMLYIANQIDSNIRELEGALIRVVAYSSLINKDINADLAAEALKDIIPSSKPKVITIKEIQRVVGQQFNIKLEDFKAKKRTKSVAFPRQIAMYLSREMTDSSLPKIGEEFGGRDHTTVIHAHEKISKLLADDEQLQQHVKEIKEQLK

## Nc1ncnc2c1ncn2[C@@H]1O[C@H](COP(=O)(O)OP(=O)(O)OP(=O)(O)O)[C@@H](O)[C@H]1O [ATP]
  competition with TNP-ATP fluorescence: can be competed away by addition of unlabelled ATP
